US6454951B1, “Photosensitive composition” (priority 1996, dated 2002)

What was measured:
Escherichia coli = experiment: Photo-inactivation of bacteria by visible light irradiation (cell survival); conditions: in words
Vibrio anguillarum = experiment: as above; type: cell-based; conditions: in words

## Meso-di(N-methyl-4-pyridyl)diphenylporphine [Di(4-N-MPy)Ph2P]
Escherichia coli
  Photo-inactivation compared with T4MPyP: more rapid and more intense photo-inactivation
Vibrio anguillarum; Gram-negative bacteria, FIG. 1, visible light
  Effect of washing operations on photosensitizing efficiency: less sensitive to washing and retains a high photoactivity
Vibrio anguillarum; Vibrio anguillarum, visible light
  Photo-inactivation compared with T4MPyP: more rapid and more intense photo-inactivation
